# Species: Rattus norvegicus
# Experiment: DrugMatrix - Regimen: Daily Repeat
# Type: toxicity, organism-based, Sprague-Dawley
# Design: regimen Daily Repeat, gender Male, age 6-8 weeks
# Settings: in vivo, sc, route subcutaneous, […]; for ABSOLUTE BASOPHIL / ABSOLUTE EOSINOPHIL / ABSOLUTE LYMPHOCYTE / ABSOLUTE MONOCYTE / ABSOLUTE SEGMENTED NEUTROPHIL / BASOPHIL / EOSINOPHIL / ERYTHROCYTE COUNT / HEMATOCRIT / HEMOGLOBIN / LEUKOCYTE COUNT / LYMPHOCYTE / MEAN CORPUSCULAR HEMOGLOBIN / MEAN CORPUSCULAR HEMOGLOBIN CONCENTRATION / MEAN CORPUSCULAR VOLUME / MONOCYTE / NEUTROPHIL / NUCLEATED RED BLOOD CELLS / PLATELET COUNT: tissue Blood; for ALANINE AMINOTRANSFERASE / ALKALINE PHOSPHATASE / ASPARTATE AMINOTRANSFERASE / BLOOD UREA NITROGEN / CARBON DIOXIDE / CHLORIDE / CHOLESTEROL / CREATINE PHOSPHOKINASE / CREATININE / GLUCOSE / LACTATE DEHYDROGENASE / LIPASE / PHOSPHORUS / POTASSIUM / SODIUM / TOTAL BILIRUBIN / TOTAL PROTEIN / URIC ACID: tissue Plasma
# [1] = 0 mg/kg, 72 h, dose level Control, time 3 day
# [2] = 0 mg/kg, 120 h, dose level Control, time 5 day
# [3] = 17 mg/kg, 72 h, dose level Low, time 3 day
compound,measurement,setting,value
CC(C)Cn1cnc2c(N)nc3ccccc3c21 [IMIQUIMOD],ABSOLUTE BASOPHIL,[1],0 CELLS/uL
same,ABSOLUTE EOSINOPHIL,[1],42.67 CELLS/uL
same,ABSOLUTE LYMPHOCYTE,[1],10202 CELLS/uL
same,ABSOLUTE MONOCYTE,[1],261.5 CELLS/uL
same,ABSOLUTE SEGMENTED NEUTROPHIL,[1],2193.83 CELLS/uL
same,BASOPHIL,[1],0%
same,EOSINOPHIL,[1],0.33%
same,ERYTHROCYTE COUNT,[1],5.63 x10E6/uL
same,HEMATOCRIT,[1],35.35%
same,HEMOGLOBIN,[1],13.07 G/DL
same,LEUKOCYTE COUNT,[1],12.7 x10E3/uL
same,LYMPHOCYTE,[1],81.17%
same,MEAN CORPUSCULAR HEMOGLOBIN,[1],23.23 pg
same,MEAN CORPUSCULAR HEMOGLOBIN CONCENTRATION,[1],36.97 G/DL
same,MEAN CORPUSCULAR VOLUME,[1],62.82 fL
same,MONOCYTE,[1],2%
same,NEUTROPHIL,[1],16.5%
same,NUCLEATED RED BLOOD CELLS,[1],0 /100WBC
same,PLATELET COUNT,[1],1180.33 x10E3/uL
same,ALANINE AMINOTRANSFERASE,[1],48.67 u/L
same,ALKALINE PHOSPHATASE,[1],360.67 u/L
same,ASPARTATE AMINOTRANSFERASE,[1],85.5 u/L
same,BLOOD UREA NITROGEN,[1],17.83 mg/dL
same,CARBON DIOXIDE,[1],26.17 mmol/L
same,CHLORIDE,[1],101.83 MEQ/L
same,CHOLESTEROL,[1],71 mg/dL
same,CREATINE PHOSPHOKINASE,[1],515.17 u/L
same,CREATININE,[1],0.22 mg/dL
same,GLUCOSE,[1],192.5 mg/dL
same,LACTATE DEHYDROGENASE,[1],214.67 u/L
same,LIPASE,[1],8.5 u/L
same,PHOSPHORUS,[1],12.95 mg/dL
same,POTASSIUM,[1],6.39 MEQ/L
same,SODIUM,[1],142.38 MEQ/L
same,TOTAL BILIRUBIN,[1],0.18 mg/dL
same,TOTAL PROTEIN,[1],5.95 G/DL
same,URIC ACID,[1],1.83 mg/dL
same,ABSOLUTE BASOPHIL,[2],0 CELLS/uL
same,ABSOLUTE EOSINOPHIL,[2],188.5 CELLS/uL
same,ABSOLUTE LYMPHOCYTE,[2],12360.83 CELLS/uL
same,ABSOLUTE MONOCYTE,[2],64.33 CELLS/uL
same,ABSOLUTE SEGMENTED NEUTROPHIL,[2],1986.33 CELLS/uL
same,BASOPHIL,[2],0%
same,EOSINOPHIL,[2],1.33%
same,ERYTHROCYTE COUNT,[2],5.52 x10E6/uL
same,HEMATOCRIT,[2],35.82%
same,HEMOGLOBIN,[2],13.25 G/DL
same,LEUKOCYTE COUNT,[2],14.6 x10E3/uL
same,LYMPHOCYTE,[2],84.5%
same,MEAN CORPUSCULAR HEMOGLOBIN,[2],24.05 pg
same,MEAN CORPUSCULAR HEMOGLOBIN CONCENTRATION,[2],36.98 G/DL
same,MEAN CORPUSCULAR VOLUME,[2],64.97 fL
same,MONOCYTE,[2],0.5%
same,NEUTROPHIL,[2],13.67%
same,NUCLEATED RED BLOOD CELLS,[2],0 /100WBC
same,PLATELET COUNT,[2],1297.83 x10E3/uL
same,ALANINE AMINOTRANSFERASE,[2],51.17 u/L
same,ALKALINE PHOSPHATASE,[2],393.17 u/L
same,ASPARTATE AMINOTRANSFERASE,[2],111 u/L
same,BLOOD UREA NITROGEN,[2],18.17 mg/dL
same,CARBON DIOXIDE,[2],25 mmol/L
same,CHLORIDE,[2],105.17 MEQ/L
same,CHOLESTEROL,[2],65.5 mg/dL
same,CREATINE PHOSPHOKINASE,[2],911.5 u/L
same,CREATININE,[2],0.21 mg/dL
same,GLUCOSE,[2],183 mg/dL
same,LACTATE DEHYDROGENASE,[2],189 u/L
same,LIPASE,[2],8.33 u/L
same,PHOSPHORUS,[2],12.78 mg/dL
same,POTASSIUM,[2],6.05 MEQ/L
same,SODIUM,[2],144.57 MEQ/L
same,TOTAL BILIRUBIN,[2],0.25 mg/dL
same,TOTAL PROTEIN,[2],5.83 G/DL
same,URIC ACID,[2],1.58 mg/dL
same,ABSOLUTE BASOPHIL,[3],0 CELLS/uL
same,ABSOLUTE EOSINOPHIL,[3],0 CELLS/uL
same,ABSOLUTE LYMPHOCYTE,[3],10952 CELLS/uL
same,ABSOLUTE MONOCYTE,[3],127.67 CELLS/uL
same,ABSOLUTE SEGMENTED NEUTROPHIL,[3],1687 CELLS/uL
same,BASOPHIL,[3],0%
same,EOSINOPHIL,[3],0%
same,ERYTHROCYTE COUNT,[3],5.23 x10E6/uL
same,HEMATOCRIT,[3],32.37%
same,HEMOGLOBIN,[3],11.97 G/DL
same,LEUKOCYTE COUNT,[3],12.77 x10E3/uL
same,LYMPHOCYTE,[3],86.33%
same,MEAN CORPUSCULAR HEMOGLOBIN,[3],22.9 pg
same,MEAN CORPUSCULAR HEMOGLOBIN CONCENTRATION,[3],37 G/DL
same,MEAN CORPUSCULAR VOLUME,[3],61.93 fL
same,MONOCYTE,[3],1%
same,NEUTROPHIL,[3],12.67%
same,NUCLEATED RED BLOOD CELLS,[3],0 /100WBC
same,PLATELET COUNT,[3],1138.33 x10E3/uL
same,ALANINE AMINOTRANSFERASE,[3],57.67 u/L
same,ALKALINE PHOSPHATASE,[3],333.67 u/L
same,ASPARTATE AMINOTRANSFERASE,[3],91.67 u/L
same,BLOOD UREA NITROGEN,[3],17.33 mg/dL
same,CARBON DIOXIDE,[3],27 mmol/L
same,CHLORIDE,[3],104.67 MEQ/L
same,CHOLESTEROL,[3],71 mg/dL
same,CREATINE PHOSPHOKINASE,[3],483 u/L
same,CREATININE,[3],0.24 mg/dL
same,GLUCOSE,[3],177 mg/dL
same,LACTATE DEHYDROGENASE,[3],117.33 u/L
same,LIPASE,[3],7.67 u/L
same,PHOSPHORUS,[3],13 mg/dL
same,POTASSIUM,[3],6.18 MEQ/L
same,SODIUM,[3],146.27 MEQ/L
same,TOTAL BILIRUBIN,[3],0.17 mg/dL
same,TOTAL PROTEIN,[3],5.53 G/DL
same,URIC ACID,[3],1.6 mg/dL

# Source: ChEMBL document CHEMBL3885881, “DrugMatrix”
